Data as given in patent US20120034613A1, “Apparatus and Method for Testing Relationships Between Gene Expression and Physical Appearance of Skin” (NSE Products, Inc., priority 2010, published 2012).

Test system: EpidermFT™ Skin Model (EFT-400) full thickness skin cultures
Experiment: Affymetrix GeneChip HG U133 Plus 2.0 microarray global gene expression, agent-exposed vs untreated skin cultures
Assay type: cell-based, human
Details: Salicin 0.5% vs Untreated Control, 24 hr; direction down

For `OCc1ccccc1O[C@@H]1O[C@H](CO)[C@@H](O)[C@H](O)[C@H]1O` [Salicin, 2-(Hydroxymethyl)phenyl β-D-glucospyranoside], the “Fold change IDH2 (210045_at)” value was 2.059, the “Fold change IL22RA1 (220056_at)” value was 2.023 and the “Fold change INPP5D (203332_s_at)” value was 2.061. For the same compound, the “Fold change ITGA3 (201474_s_at)” value was 2.052, the “Fold change JAG1 (209099_x_at)” value was 2.044 and the “Fold change JAG1 (216268_s_at)” value was 2.123. The “Fold change JMJD7 /// JMJD7-PLA2G4B /// PLA2G4B (222256_s_at)” value was 2.101, the “Fold change KCNK7 (224055_x_at)” value was 2.127 and the “Fold change KCTD15 (222668_at)” value was 2.037. The “Fold change KIF1B (209234_at)” value was 2.105, the “Fold change KIF1B (225878_at)” value was 2.14 and the “Fold change KLK1 (216699_s_at)” value was 2.169. The “Fold change KRT5 (201820_at)” value was 2.154, the “Fold change KRT6A (209125_at)” value was 2.034 and the “Fold change KRT10 (207023_x_at)” value was 2.066. The “Fold change KRTCAP3 (235148_at)” value was 2.158, the “Fold change LMNA (212089_at)” value was 2.1 and the “Fold change LMNA (1554600_s_at)” value was 2.053. The “Fold change LMNB1 (203276_at)” value was 2.146, the “Fold change LOC284837 (1563088_a_at)” value was 2.115 and the “Fold change LOC286440 (209733_at)” value was 2.16. For the same compound, the “Fold change LOC400027 (226413_at)” value was 2.041, the “Fold change LOC401233 (1558882_at)” value was 2.002 and the “Fold change LOC648245 (227739_at)” value was 2.064. For the same compound, the “Fold change LOC652968 (233528_s_at)” value was 2.038, the “Fold change LOC727820 (227384_s_at)” value was 2.055 and the “Fold change LOC100128443 /// MAST4 (210958_s_at)” value was 2.131. The “Fold change LOC100128822 (235174_s_at)” value was 2.067, the “Fold change LOC100130837 (242255_at)” value was 2.078 and the “Fold change LOC100131262 (1558152_at)” value was 2.081. For the same compound, the “Fold change LOC100131851 /// LOC100134497 /// LOC401002 /// LOC646674 /// SSBP3 (222482_at)” value was 2.025, the “Fold change LOC100133772 /// SLC16A5 (206600_s_at)” value was 2.044 and the “Fold change LOC100134937 (229685_at)” value was 2.12. The “Fold change LPHN1 (47560_at)” value was 2.092, the “Fold change LY75 (205668_at)” value was 2.028 and the “Fold change LYSMD4 (228954_at)” value was 2.116. The “Fold change MAFB (218559_s_at)” value was 2.112, the “Fold change MAPRE2 (202501_at)” value was 2.078 and the “Fold change MEGF9 (212831_at)” value was 2.176. The “Fold change MFAP5 (213764_s_at)” value was 2.112, the “Fold change MIB2 (226644_at)” value was 2.032 and the “Fold change MPP7 (238451_at)” value was 2.14. For the same compound, the “Fold change MTHFR (226929_at)” value was 2.073, the “Fold change MTMR1 (214975_s_at)” value was 2.146 and the “Fold change MUC1 (213693_s_at)” value was 2.138. For the same compound, the “Fold change MYO18A /// TIAF1 (202039_at)” value was 2.04, the “Fold change NBEAL2 (212443_at)” value was 2.05 and the “Fold change NCF2 (209949_at)” value was 2.128. The “Fold change NCRNA00086 (238697_at)” value was 2.098, the “Fold change PAIP1 (208051_s_at)” value was 2.141 and the “Fold change PAIP2B (221868_at)” value was 2.043. The “Fold change PAWR (204005_s_at)” value was 2.161, the “Fold change PAWR (229515_at)” value was 2.15 and the “Fold change PDIK1L (227255_at)” value was 2.059. For the same compound, the “Fold change PERP (217744_s_at)” value was 2.176, the “Fold change PIGW (1558292_s_at)” value was 2.085 and the “Fold change PLEKHA2 (225136_at)” value was 2.159. The “Fold change PLS3 (201215_at)” value was 2.167, the “Fold change PNMA2 (209598_at)” value was 2.146 and the “Fold change POLE2 (205909_at)” value was 2.104. The “Fold change POLH (231115_at)” value was 2.029, the “Fold change POLR3B (219459_at)” value was 2.135 and the “Fold change POU3F1 (208345_s_at)” value was 2.16. For the same compound, the “Fold change PPAP2C (209529_at)” value was 2.033, the “Fold change PPP1CB (201409_s_at)” value was 2.054 and the “Fold change PPP2CA (208652_at)” value was 2.035. The “Fold change PRDX2 (39729_at)” value was 2.068, the “Fold change PRKX (204061_at)” value was 2.015 and the “Fold change PTCH1 (209815_at)” value was 2.148. The “Fold change PTGFR (1555097_a_at)” value was 2.022, the “Fold change PVRL1 (225211_at)” value was 2.08 and the “Fold change RAB7B (1553982_a_at)” value was 2.095. For the same compound, the “Fold change RAPGEFL1 (218657_at)” value was 2.162, the “Fold change RHOV (241990_at)” value was 2.107 and the “Fold change RICS (203431_s_at)” value was 2.143. For the same compound, the “Fold change RNF170 (226104_at)” value was 2.034, the “Fold change RORA (235567_at)” value was 2.083 and the “Fold change RPS6KA5 (204633_s_at)” value was 2.051. The “Fold change RPS6KB2 (203777_s_at)” value was 2.074, the “Fold change SCRN3 (222849_s_at)” value was 2.115 and the “Fold change SDCCAG8 (243963_at)” value was 2.133. The “Fold change SEMA4D (203528_at)” value was 2.021, the “Fold change SERPINB1 (213572_s_at)” value was 2.014 and the “Fold change SETBP1 (227478_at)” value was 2.148. For the same compound, the “Fold change SHROOM2 (204967_at)” value was 2.088, the “Fold change SLC5A3 (212944_at)” value was 2.165 and the “Fold change SLC24A3 (219090_at)” value was 2.138. For the same compound, the “Fold change SLC45A4 (225598_at)” value was 2.071, the “Fold change SLCO3A1 (219229_at)” value was 2.162 and the “Fold change SMAP2 (225282_at)” value was 2.14. For the same compound, the “Fold change SMCR7 (235896_s_at)” value was 2.152, the “Fold change SNX21 (1553960_at)” value was 2.031 and the “Fold change SNX24 (218705_s_at)” value was 2.152. The “Fold change SORD (201563_at)” value was 2.01, the “Fold change ST8SIA4 (230836_at)” value was 2.021 and the “Fold change STK24 (208854_s_at)” value was 2.165. The “Fold change SYNGR2 (201079_at)” value was 2.14, the “Fold change TANC1 (225308_s_at)” value was 2.118 and the “Fold change TCEA3 (226388_at)” value was 2.034. The “Fold change TCHP (223455_at)” value was 2.126, the “Fold change TGOLN2 (1554608_at)” value was 2.114 and the “Fold change THBD (203888_at)” value was 2.109. The “Fold change TIMM22 (219184_x_at)” value was 2.067, the “Fold change TMC5 (222904_s_at)” value was 2.096 and the “Fold change TMEM19 (226860_at)” value was 2.032. For the same compound, the “Fold change TMEM45A (219410_at)” value was 2.136, the “Fold change TMEM50B (225182_at)” value was 2.096 and the “Fold change TMEM80 (65630_at)” value was 2.031. For the same compound, the “Fold change TP53I3 (210609_s_at)” value was 2.13, the “Fold change TRAF3IP2 (202987_at)” value was 2.079 and the “Fold change TRIM2 (202342_s_at)” value was 2.062. For the same compound, the “Fold change TTC30B (1554588_a_at)” value was 2.011, the “Fold change VPS4B (218171_at)” value was 2.031 and the “Fold change WNK1 (39313_at)” value was 2.008.
